Target: T1, POLγ W748S + E1143G (Homo sapiens, UniProt P54098, E1143G/W748S)
T1 sequence (P54098 1-1239 W748S/E1143G): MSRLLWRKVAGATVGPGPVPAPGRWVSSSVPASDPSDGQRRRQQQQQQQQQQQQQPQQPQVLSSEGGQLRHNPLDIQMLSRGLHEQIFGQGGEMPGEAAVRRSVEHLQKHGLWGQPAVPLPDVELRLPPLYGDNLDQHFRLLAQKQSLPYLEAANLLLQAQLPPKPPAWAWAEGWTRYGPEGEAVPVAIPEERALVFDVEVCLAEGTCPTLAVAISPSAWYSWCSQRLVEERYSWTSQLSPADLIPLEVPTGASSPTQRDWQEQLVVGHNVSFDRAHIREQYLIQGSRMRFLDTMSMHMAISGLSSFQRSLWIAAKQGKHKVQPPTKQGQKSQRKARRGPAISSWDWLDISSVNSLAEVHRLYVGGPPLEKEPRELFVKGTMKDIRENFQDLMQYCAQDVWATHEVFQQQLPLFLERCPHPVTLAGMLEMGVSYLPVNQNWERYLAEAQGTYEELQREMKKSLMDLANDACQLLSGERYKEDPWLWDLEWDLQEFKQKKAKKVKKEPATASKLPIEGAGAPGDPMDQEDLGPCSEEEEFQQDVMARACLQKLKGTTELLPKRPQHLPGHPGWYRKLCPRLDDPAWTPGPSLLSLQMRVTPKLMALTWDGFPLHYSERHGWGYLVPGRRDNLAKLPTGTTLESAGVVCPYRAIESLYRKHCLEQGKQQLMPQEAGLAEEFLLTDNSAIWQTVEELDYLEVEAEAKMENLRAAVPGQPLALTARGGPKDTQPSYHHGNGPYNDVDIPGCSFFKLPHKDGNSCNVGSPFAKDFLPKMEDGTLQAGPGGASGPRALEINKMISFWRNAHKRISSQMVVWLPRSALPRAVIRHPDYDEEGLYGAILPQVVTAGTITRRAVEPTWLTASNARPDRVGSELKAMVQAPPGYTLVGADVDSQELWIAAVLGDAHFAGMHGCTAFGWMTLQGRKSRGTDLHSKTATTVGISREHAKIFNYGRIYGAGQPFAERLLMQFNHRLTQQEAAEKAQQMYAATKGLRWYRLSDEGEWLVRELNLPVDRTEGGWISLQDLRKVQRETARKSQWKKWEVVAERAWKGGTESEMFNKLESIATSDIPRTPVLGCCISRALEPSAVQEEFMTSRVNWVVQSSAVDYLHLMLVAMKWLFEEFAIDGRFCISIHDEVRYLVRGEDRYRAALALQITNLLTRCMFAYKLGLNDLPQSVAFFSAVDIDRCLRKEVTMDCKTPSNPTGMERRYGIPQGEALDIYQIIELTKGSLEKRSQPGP
T1 sequence (Q9UHN1 1-485 partner): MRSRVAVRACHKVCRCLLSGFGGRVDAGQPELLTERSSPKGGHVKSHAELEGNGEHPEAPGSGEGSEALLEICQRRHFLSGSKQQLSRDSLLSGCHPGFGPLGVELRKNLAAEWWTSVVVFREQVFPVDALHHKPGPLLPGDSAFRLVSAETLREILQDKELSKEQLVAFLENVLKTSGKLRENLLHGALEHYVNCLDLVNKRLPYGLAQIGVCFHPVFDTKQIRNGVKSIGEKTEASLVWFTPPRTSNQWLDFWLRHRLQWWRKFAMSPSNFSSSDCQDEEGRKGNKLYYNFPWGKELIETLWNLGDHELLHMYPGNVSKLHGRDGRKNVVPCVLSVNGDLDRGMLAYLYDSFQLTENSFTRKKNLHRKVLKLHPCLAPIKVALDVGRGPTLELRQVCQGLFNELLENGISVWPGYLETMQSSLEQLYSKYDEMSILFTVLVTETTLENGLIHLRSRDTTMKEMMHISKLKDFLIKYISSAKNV
Test: DNA polymerization assay, W748S + E1143G mutant
Assay type: biochemical
Conditions: stimulation of polymerase activity, primed M13mp18 ssDNA, 37° C. 2 hours
Description: DNA Polymerization Assay to Monitor Effects on Human Wildtype POLγ and Four Disease-Causing Mutant Variants of Human POLγ.
The ability of small molecules to stimulate the polymerase activity of POLγ was analyzed in a quantitative fluorescence SYBR Green I assay with fluorescence intensity (FI) readout.
In the presence of dNTPs, wild type human POLγ and mutant derivatives thereof were incubated with single-stranded, circular M13mp18 ssDNA hybridized to a short DNA oligonucleotide that functions as a primer for initiation of DNA synthesis. POLγ and mutant derivatives thereof will extend the primer and use the M13mp18 molecule as a template to synthesize long stretches of double-stranded DNA. SYBR Green I, which is a double-stranded DNA-binding dye, was used to quantify formation of double-stranded DNA in the reaction. When bound to double-stranded DNA, SYBR Green I fluorescence increases by up to 100-fold.
The assay was performed in the 384-well plate format. Upon addition of compounds, changes in double-stranded DNA synthesis activity can be monitored by following effects on fluorescent intensity.
The reactions also contained the accessory POLγB subunit, and the human mitochondrial single-stranded DNA binding protein (mtSSB).
The DNA template mixture used in the assay contained 0.5 nM primed M13 mp18 ssDNA, 400 nM mtSSB, 0.1 mM Tris-HCl (pH 8.0), 0.1 mM dNTP, 10 mM MgCl2, 0.1 mg/mL BSA, 1 mM TCEP solution, and 0.02% Triton X-100. The DNA template mixture for the wild type protein contained either 100 μM dNTP, 1 μM dNTP, or 0.1 μM dNTP, designated in Table 2 as 100 μM, 1 μM, and 0.1 μM, respectfully.
Microplates with compounds (0.1 μL in each well) to be tested in the assay were prepared from 10 mM compound stocks in 100% DMSO, and equal amounts of DMSO without any compound were added to positive and negative control wells.
The protein mixture was dispensed (5 μL into each well) into compound plates and incubated at 37° C. for 15 minutes. After incubation, 5 μL of the DNA template mixture was dispensed into each well. The plates were then incubated at 37° C. for 2 hours.
During incubation, a combined stop buffer and detection reagent solution was prepared. The buffer contained 25 mM EDTA (pH 8.0), 0.02% Triton X-100, and SYBR Green I [Invitrogen] diluted 10,000× (for fluorescent readout). EDTA will stop the enzymatic reaction by chelating magnesium ions.

Row | Structure (SMILES) | AC50
1 | Cc1cc(S(=O)(=O)Nc2cccc(-c3ncc(C#N)s3)c2)c(C)cc1Cl [Example 96, 4-chloro-N-(3-(5-cyanothiazol-2-yl)phenyl)-2,5-dimethylbenzenesulfonamide] | 2 µM
2 | Cc1cnc(-c2ccc(C)c(NS(=O)(=O)c3cc(C)c(Cl)cc3C)c2)s1 [Example 98, 4-chloro-2,5-dimethyl-N-(2-methyl-5-(5-methylthiazol-2-yl)phenyl)benzenesulfonamide] | > 100 µM
3 | Cc1cnc(-c2cc(NS(=O)(=O)c3cc(C)c(Cl)cc3C)ccc2C)s1 [Example 103, 4-chloro-2,5-dimethyl-N-(4-methyl-3-(5-methylthiazol-2-yl)phenyl)benzenesulfonamide] | > 100 µM

Other lines, results leading:

Row | AC50 | Structure (SMILES)
4 | 2 µM | Cc1cc(S(=O)(=O)Nc2cccc(C(=O)N3CCC[C@H]3C)c2)c(C)cc1Cl [Example 10, (R)-4-chloro-2,5-dimethyl-N-(3-(2-methylpyrrolidine-1-carbonyl)phenyl)benzenesulfonamide]
5 | 19 µM | Cc1cc(S(=O)(=O)Nc2cccc(C(=O)NCc3ccccc3)c2)c(C)cc1Cl [Example 11, N-benzyl-3-((4-chloro-2,5-dimethylphenyl)sulfonamido)benzamide]
6 | 4 µM | Cc1cc(S(=O)(=O)Nc2cc(F)cc(C(=O)N3CCC[C@H]3C)c2)c(C)cc1Cl [Example 13, (R)-4-chloro-N-(3-fluoro-5-(2-methylpyrrolidine-1-carbonyl)phenyl)-2,5-dimethylbenzenesulfonamide]
